# From patent US12325710B2, “Substituted 1,2,3,4,5,6-hexahydroazepino[4,5-b]indoles for treating brain disorders” (priority 2019, dated 2025)
# Entries after “also recorded” stand apart in the source; their conditions may differ.
# Legend:
# 5HT2A sensor = 5HT2A sensor assay (sLight1.3s HEK293T cells), agonist and antagonist mode; type: cell-based; conditions: for activation of 5HT2A sensor, agonist mode / competition with 5HT binding at 5HT2A sensor, antagonist mode: 10 μM of compound; for activation of 5HT2A sensor, agonist mode: FIG. 16; for competition with 5HT binding at 5HT2A sensor, antagonist mode: FIG. 18; for activation of 5HT2A sensor, agonist mode, dose response: FIG. 15
# Method: 5HT2A Sensor Assays. HEK293T (ATCC) 5HT2A sensor stable line (sLight1.3s) was generated via lentiviral transduction of HIV-EF1α-sLight1.3 and propagated from a single colony. Lentivirus was produced using 2nd generation lentiviral plasmids pHIV-EF1α-sLight1.3, pHCMV-G, and pCMV-deltaR8.2.
# For the screening of the 41 compounds, sLight1.3s cells were plated in 96-well plates at a density of 40000 24-hours prior to imaging. On the day of imaging, compounds solubilized in DMSO were diluted from the 100 mM stock solution to working concentrations of 1 mM, 100 μM and 1 μM with a DMSO concentration of 1%. Immediately prior to imaging, cells growing in DMEM (Gibco) were washed 2× with HBSS (Gibco) and in agonist mode 180 μL of HBSS or in antagonist mode 160 μL of HBSS was added to each well after the final wash. For agonist mode, images were taken before and after the addition of the 20 μL compound working solution into the wells containing 180 μL HBSS. This produced final compound concentrations of 100 μM, 10 μM and 100 nM with a DMSO concentration of 0.1%. For antagonist mode, images were taken before and after addition of 20 μL of 900 nM 5-HT and again after 20 μL of the compound working solutions to produce final concentrations of 100 nM for 5HT and 100 μM, 10 μM and 100 nM for the compounds with a DMSO concentration of 0.1%. Each compound was tested in triplicates (3 wells) for each concentration (100 μM, 10 μM and 100 nM). Additionally, within each plate, 100 nM 5HT and 0.1% DMSO controls were also imaged.
# For each well, the cellular membrane where the 5HT2A sensor is targeted was autofocused using the adaptive focus controls and 5 images from different regions within the well were taken with each image processed from a 2×2 binning.
# For data processing, the membranes from each image was segmented and analyzed using a custom algorithm written in MATLAB producing a single raw fluorescence intensity value. For each well the 5 raw fluorescence intensity values generated from the 5 images were averaged and the change in fluorescence intensity (dFF) was calculated as: dFF=(Fsat−Fapo)/Fapo
# For both agonist and antagonist modes, the fluorescence intensity values before compound addition in HBSS only were used as the Fapo values while the fluorescence intensity values after compound addition were used as the Fsat values.
# For agonist mode, data are as percent activation relative to 5HT, where 0 is the average of the DMSO wells and 100 is the average of the 100 μM 5HT wells.
# C57BL/6J mice = test: Head-twitch response (HTR) assay; conditions: intraperitoneal; fumarate salts; 5-MeO-DMT 10 mg/kg as positive control
# 5-HT2B receptors = 5-HT2B receptors (Homo sapiens, UniProt P41595); test: 5-HT2B Gq-mediated calcium flux functional assay; type: cell-based
# 5-HT2B receptors, sequence (P41595 whole entry, canonical isoform): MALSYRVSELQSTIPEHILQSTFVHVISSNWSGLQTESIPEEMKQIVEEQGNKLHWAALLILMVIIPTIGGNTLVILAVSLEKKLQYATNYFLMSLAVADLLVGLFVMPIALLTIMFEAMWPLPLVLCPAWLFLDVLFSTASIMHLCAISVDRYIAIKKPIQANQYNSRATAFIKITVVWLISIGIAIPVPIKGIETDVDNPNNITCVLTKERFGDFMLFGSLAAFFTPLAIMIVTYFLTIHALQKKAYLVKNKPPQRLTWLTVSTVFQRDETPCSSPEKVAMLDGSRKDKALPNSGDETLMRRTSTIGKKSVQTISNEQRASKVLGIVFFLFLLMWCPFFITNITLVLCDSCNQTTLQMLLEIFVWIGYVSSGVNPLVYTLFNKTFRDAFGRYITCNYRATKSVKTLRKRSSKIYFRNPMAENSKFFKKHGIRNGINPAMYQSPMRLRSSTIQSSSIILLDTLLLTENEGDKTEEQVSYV
# Method: Serotonin and Opioid Receptor Functional Assays. Functional assay screens at 5-HT and opioid receptors were performed in parallel using the same compound dilutions and 384-well format high-throughput assay platforms. Assays assessed activity at all human isoforms of the receptors, except where noted for the mouse 5-HT2A receptor. Receptor constructs in pcDNA vectors were generated from the Presto-Tango GPCR library with minor modifications. All compounds were serially diluted in drug buffer (HBSS, 20 mM HEPES, pH 7.4 supplemented with 0.1% bovine serum albumin and 0.01% ascorbic acid) and dispensed into 384-well assay plates using a FLIPR^TETRA (Molecular Devices). Every plate included a positive control such as 5-HT (for all 5-HT receptors), DADLE (DOR), salvinorin A (KOR), and DAMGO (MOR). For measurements of 5-HT2A, 5-HT2B, and 5-HT2C Gq-mediated calcium flux function, HEK Flp-In 293 T-Rex stable cell lines (Invitrogen) were loaded with Fluo-4 dye for one hour, stimulated with compounds and read for baseline (0-10 seconds) and peak fold-over-basal fluorescence (5 minutes) at 25° C. on the FLIPR^TETRA. For measurement of 5-HT6 and 5-HT7a functional assays, Gs-mediated cAMP accumulation was detected using the split-luciferase GloSensor assay in HEKT cells measuring luminescence on a Microbeta Trilux (Perkin Elmer) with a 15 min drug incubation at 25° C. For 5-HT1A, 5-HT1B, 5-HT1F, MOR, KOR, and DOR functional assays, Gi/o-mediated cAMP inhibition was measured using the split-luciferase GloSensor assay in HEKT cells, conducted similarly as above, but in combination with either 0.3 μM isoproterenol (5-HT1A, 5-HT1B, 5-HT1F) or 1 μM forskolin (MOR, KOR, and DOR) to stimulate endogenous cAMP accumulation. For measurement of 5-HT1D, 5-HT1E, 5-HT4, and 5-HT5A functional assays, β-arrestin2 recruitment was measured by the Tango assay utilizing HTLA cells expressing TEV fused-β-arrestin2, as described previously with minor modifications. […]
# [1] = test system: rat embryonic cortical neurons; test: Dendritogenesis (Sholl analysis) in cultured cortical neurons; type: cell-based; conditions: 1 h treatment followed by 71 h growth; compared to vehicle (VEH)
# Method: Embryonic rat cortical neurons were treated for a short period of time (1 h) followed by a suitable growth period (71 h) to measure the psychoplastogenic effects of the compounds described herein. […] Therefore, the effects of ibogalogs 8-17 on dendritic growth was assessed.
# Dendritogenesis Experiments. For the dendritogenesis experiments conducted using cultured cortical neurons, timed pregnant Sprague Dawley rats were obtained from Charles River Laboratories (Wilmington, MA). Full culturing, staining, and analysis details were performed as previously described. (Dunlap, L. et al., 2019)
# [2] = test system: mouse primary sensory cortex; test: In vivo spine dynamics, transcranial 2-photon imaging; conditions: 24 h after i.p. dose; TBG 50 mg/kg, DOI 10 mg/kg
# Method: In Vivo Spine Dynamics. Male and female Thy1-GFP-M line mice (n=5 per condition) were purchased from The Jackson Laboratory (JAX #007788) and maintained in UCSC animal facilities according to an IACUC approved protocol. In vivo transcranial two-photon imaging and data analysis were performed as previously described. Briefly, mice were anesthetized with an intraperitoneal (i.p.) injection of a mixture of ketamine (87 mg/kg) and xylazine (8.7 mg/kg). A small region of the exposed skull was manually thinned down to 20-30 μm for optical access. Spines on apical dendrites in mouse primary sensory cortices were imaged using a Bruker Ultima IV two-photon microscope equipped with an Olympus water-immersion objective (40×, NA=0.8) and a Ti:Sapphire laser (Spectra-Physics Mai-Tai, excitation wavelength 920 nm). Images were taken at a zoom of 4.0 (pixel size 0.143×0.143 μm) and Z-step size of 0.7 μm. The mice received an i.p. injection (injection volume=5 mL/kg) of DOI (10 mg/kg) or TBG (50 mg/kg) immediately after they recovered from anesthesia given prior to the first imaging session. The animals were re-imaged 24 h after drug administration. Dendritic spine dynamics were analyzed using ImageJ. Spine formation and elimination were quantified as percentages of spine number on day 0.
# [3] = test system: larval zebrafish expressing GCaMP5; test: Seizurogenic potential in larval zebrafish expressing GCaMP5; type: in vivo; conditions: 200 μM; PTZ positive control
# Method: Transgenic larval zebrafish expressing GCaMP5G were immobilized in agarose, treated with compounds, and imaged over time. The known seizure-inducing compound PTZ was used as a positive control. All compounds were treated at 200 μM (n=2 per condition).
# larval zebrafish = test: Larval zebrafish movement activity during a battery of light and acoustic stimuli; conditions: for behavioral phenotype at highest concentration versus lethal control: 200 μM; for behavioral phenotype with increasing concentration versus vehicle and lethal control (eugenol, 100 μM): 1 h treatment, concentration-response
# Source text: Stimuli applied over time are indicated under the heatmaps. Colors indicate bright LED light of respective colors, black traces represent the waveforms of acoustic stimuli, and gray vertical lines indicate physical tapping as secondary acoustic stimuli.
# Response is […] proportional to classification accuracy; 0-20% indicates no ability and 100% indicates perfect classification. […] The solid line denotes the median and the shading denotes a 95th percentile confidence interval calculated by bootstrap. N=8 wells/condition (64 animals/condition).
# zebrafish = test: Zebrafish developmental toxicity assay; type: in vivo; conditions: 100 μM; 2 and 5 dpf
molecule,measurement,setting,value
CCN(CC)C(=O)[C@@H]1C=C2c3cccc4[nH]c(Br)c(c34)C[C@H]2N(C)C1 [BOL148],"activation of 5HT2A sensor, agonist mode",5HT2A sensor,do not activate the 5HT2A sensor assay in agonist mode
same,"competition with 5HT binding at 5HT2A sensor, antagonist mode",5HT2A sensor; antagonist mode,compete with 5HT binding to 5HT2A
"COc1ccc2[nH]cc(CCN(C)C)c2c1 [Compound 5-MeO-DMT, 5-methoxy-N,N-dimethyltryptamine, reference compound]",hallucinogenic potential (head-twitch response),C57BL/6J mice,robust HTR
same,activity mode at 5-HT2B receptors,5-HT2B receptors,agonists of 5-HT2B receptors
same,"activation of 5HT2A sensor, agonist mode",5HT2A sensor,activate the 5HT2A sensor assay in agonist mode
same,"activation of 5HT2A sensor, agonist mode, dose response",5HT2A sensor,activate a 5HT2A sensor assay in agonist mode
CCN(CC)CCc1c[nH]c2cc(F)ccc12 [Compound 6-F-DET],"activation of 5HT2A sensor, agonist mode",5HT2A sensor,do not activate the 5HT2A sensor assay in agonist mode
same,"competition with 5HT binding at 5HT2A sensor, antagonist mode",5HT2A sensor; antagonist mode,compete with 5HT binding to 5HT2A
COc1ccc2c(CCN(C)C)c[nH]c2c1 [Compound 6-MeO-DMT],"activation of 5HT2A sensor, agonist mode",5HT2A sensor,do not activate the 5HT2A sensor assay in agonist mode
same,"activation of 5HT2A sensor, agonist mode, dose response",5HT2A sensor,do not
same,"competition with 5-HT at 5HT2A sensor, antagonist mode, dose response","5HT2A sensor; antagonist mode, FIG. 17",compete off 5-HT
CCC1CC2CCC1N(CCc1c[nH]c3ccc(O)cc13)C2 (stereo not drawn) [Compound 11b],psychoplastogenic effect on dendritic growth (Sholl analysis),[1],weak psychoplastogens or did not promote neuronal growth
CN(C)CCc1c[nH]c2ccccc12 [DMT],"activation of 5HT2A sensor, agonist mode",5HT2A sensor,activate the 5HT2A sensor assay in agonist mode
"COc1cc(CC(C)N)c(OC)cc1I (stereo not drawn) [DOI, 2,5-dimethoxy-4-iodoamphetamine, reference compound]",spine elimination,[2],no effect on spine elimination; also recorded: Neither TBG nor DOI affected spine elimination
same,spine formation,[2],increased spine formation
same,"activation of 5HT2A sensor, agonist mode",5HT2A sensor,activate the 5HT2A sensor assay in agonist mode
"O=C(c1ccc(F)cc1)C1CCN(CCn2c(=O)[nH]c3ccccc3c2=O)CC1 [Ketanserin, ketanserin]","activation of 5HT2A sensor, agonist mode",5HT2A sensor,do not activate the 5HT2A sensor assay in agonist mode
same,"competition with 5HT binding at 5HT2A sensor, antagonist mode",5HT2A sensor; antagonist mode,compete with 5HT binding to 5HT2A
"CCN(CC)C(=O)[C@@H]1C=C2c3cccc4[nH]cc(c34)C[C@H]2N(C)C1 [LSD, lysergic acid diethylamide]","activation of 5HT2A sensor, agonist mode",5HT2A sensor,activate the 5HT2A sensor assay in agonist mode
same,"activation of 5HT2A sensor, agonist mode, dose response",5HT2A sensor,activate a 5HT2A sensor assay in agonist mode
"C1CCc2nnnn2CC1 [PTZ, pentylenetetrazole, reference compound]",seizure induction (neural activity),[3],excessive neural activity
CNC(C)Cc1ccc2c(c1)OCO2 (stereo not drawn) [R-MDMA],"activation of 5HT2A sensor, agonist mode",5HT2A sensor,do not activate the 5HT2A sensor assay in agonist mode
"O=S1OCC2C(CO1)C1(Cl)C(Cl)=C(Cl)C2(Cl)C1(Cl)Cl (stereo not drawn) [endosulfan, reference compound]",behavioral phenotype at highest concentration versus lethal control,larval zebrafish,phenotypically consistent with the lethal control
"O=C(CCCN1CCC(O)(c2ccc(Cl)cc2)CC1)c1ccc(F)cc1 [haloperidol, reference compound]","behavioral phenotype with increasing concentration versus vehicle and lethal control (eugenol, 100 μM)",larval zebrafish,"more phenotypically distinct from the vehicle control, while more closely resembling the lethal control"
"CC[C@H]1C[C@H]2C[C@H]3c4[nH]c5ccc(O)cc5c4CCN(C2)[C@@H]13 [noribogaine, reference compound]","malformations, mortality, non-viable fish",zebrafish,"greater survival, but the majority of the animals exhibited yolk sac and/or pericardial edemas"
same,behavioral phenotype at highest concentration versus lethal control,larval zebrafish,phenotypically consistent with the lethal control
same,"behavioral phenotype with increasing concentration versus vehicle and lethal control (eugenol, 100 μM)",larval zebrafish,"more phenotypically distinct from the vehicle control, while more closely resembling the lethal control"
"O=C1NCCN1CCN1CCC(c2cn(-c3ccc(F)cc3)c3ccc(Cl)cc23)CC1 [sertindole, reference compound]","behavioral phenotype with increasing concentration versus vehicle and lethal control (eugenol, 100 μM)",larval zebrafish,"more phenotypically distinct from the vehicle control, while more closely resembling the lethal control"
"CC(C)(C)c1ccc(C(O)CCCN2CCC(C(O)(c3ccccc3)c3ccccc3)CC2)cc1 (stereo not drawn) [terfenadine, reference compound]","behavioral phenotype with increasing concentration versus vehicle and lethal control (eugenol, 100 μM)",larval zebrafish,"more phenotypically distinct from the vehicle control, while more closely resembling the lethal control"
ibogaine [reference compound],psychoplastogenic effect on dendritic growth (Sholl analysis),[1],demonstrates psychoplastogenic effects
